Reference: patent publication US9255100B2 (BAYER INTELLECTUAL PROPERTY GMBH, priority 2010, dated 2016)

target: T1, N-terminally GST-tagged human full length recombinant Mps-1 kinase (Homo sapiens, UniProt P33981); test: Mps-1 kinase assay (TR-FRET); format: biochemical; details: Mps1 IC50 [nM], 10 μM ATP, 1 μM peptide substrate, 60 min at 22° C.
T1 construct: N-terminally GST-tagged human full length recombinant Mps-1 kinase; purchased Invitrogen, Karslruhe, Germany PV4071
T1 sequence (P33981 1-857): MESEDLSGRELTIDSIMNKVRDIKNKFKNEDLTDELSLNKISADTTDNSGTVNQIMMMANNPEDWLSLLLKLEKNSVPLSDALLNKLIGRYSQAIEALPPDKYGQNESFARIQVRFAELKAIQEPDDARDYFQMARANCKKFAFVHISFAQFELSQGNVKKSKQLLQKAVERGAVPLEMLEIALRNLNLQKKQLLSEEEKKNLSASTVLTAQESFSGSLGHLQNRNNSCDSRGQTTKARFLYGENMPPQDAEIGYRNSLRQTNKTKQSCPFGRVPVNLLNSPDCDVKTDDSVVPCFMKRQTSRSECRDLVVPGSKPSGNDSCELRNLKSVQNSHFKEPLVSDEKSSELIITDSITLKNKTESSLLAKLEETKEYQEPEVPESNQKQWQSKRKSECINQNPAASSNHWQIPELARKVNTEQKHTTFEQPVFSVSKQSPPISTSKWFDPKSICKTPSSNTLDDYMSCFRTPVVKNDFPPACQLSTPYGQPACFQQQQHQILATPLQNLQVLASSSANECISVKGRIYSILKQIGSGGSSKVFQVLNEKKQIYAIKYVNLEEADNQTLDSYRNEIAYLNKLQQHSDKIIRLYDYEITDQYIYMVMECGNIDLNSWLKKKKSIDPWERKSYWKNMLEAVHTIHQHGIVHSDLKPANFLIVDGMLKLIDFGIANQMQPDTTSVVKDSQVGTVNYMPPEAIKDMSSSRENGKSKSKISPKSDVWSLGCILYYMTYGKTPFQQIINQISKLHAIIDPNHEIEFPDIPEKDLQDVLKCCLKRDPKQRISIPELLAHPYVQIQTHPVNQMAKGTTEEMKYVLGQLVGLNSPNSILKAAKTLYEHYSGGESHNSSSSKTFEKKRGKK
Experimental: The human kinase Mps-1 phosphorylates a biotinylated substrate peptide. Detection of the phosphorylated product is achieved by time-resolved fluorescence resonance energy transfer (TR-FRET) from Europium-labelled anti-phospho-Serine/Threonine antibody as donor to streptavidin labelled with cross-linked allophycocyanin (SA-XLent) as acceptor. Compounds are tested for their inhibition of the kinase activity.
N-terminally GST-tagged human full length recombinant Mps-1 kinase (purchased from Invitrogen, Karslruhe, Germany, cat. no PV4071) was used. As substrate for the kinase reaction a biotinylated peptide of the amino-acid sequence […] (C-terminus in amide form, purchased from Biosynthan GmbH, Berlin) was used.
The concentration of Mps-1 in the assay was adjusted to the activity of the enzyme lot and was chosen appropriate to have the assay in the linear range, typical enzyme concentrations were in the range of about 1 nM (final conc. in the 5 μl assay volume).
The resulting mixture was incubated 1 h at 22° C. to allow the binding of the phosphorylated peptide to the anti-phospho(Ser/Thr)-Europium-antibody. Subsequently the amount of phosphorylated substrate was evaluated by measurement of the resonance energy transfer from the Europium-labelled anti-phospho(Ser/Thr) antibody to the Streptavidin-XLent.

Structure (SMILES)	IC50 [nM]
Cc1cc(F)cc(Oc2cc(NCCCC(F)(F)F)c3ncc(-c4ccc(C(=O)NC5CC5)c(C)c4)n3n2)c1 [Example 452, N-cyclopropyl-4-{6-(3-fluoro-5-methylphenoxy)-8-[(4,4,4-trifluorobutyl)amino]imidazo[1,2-b]pyridazin-3-yl}-2-methylbenzamide]	0.8
Cc1cc(-c2cnc3c(NCCC(F)(F)F)cc(SCCO)nn23)ccc1C(=O)NC1CC1 [Example 204, N-cyclopropyl-4-{6-[(2-hydroxyethyl)sulfanyl]-8-[(3,3,3-trifluoropropyl)amino]imidazo[1,2-b]pyridazin-3-yl}-2-methylbenzamide]	< 1
CSc1cc(NCCC(F)(F)F)c2ncc(-c3ccc(C(=O)NC4CC4)c(C)c3)n2n1 [Example 203, N-cyclopropyl-2-methyl-4-{6-(methylsulfanyl)-8-[(3,3,3-trifluoropropyl)amino]imidazo[1,2-b]pyridazin-3-yl}benzamide]	1.4
CNC(=O)c1ccc(-c2cnc3c(NCC(F)F)cc(Oc4ccc(OC)cc4F)nn23)cc1C [Example 580, 4-{8-[(2,2-difluoroethyl)amino]-6-(2-fluoro-4-meth-oxyphenoxy)imidazo[1,2-b]pyridazin-3-yl}-N,2-dimethylbenzamide]	< 1
Cc1cc(-c2cnc3c(NCCC(F)(F)F)cc(Nc4cccc(O)c4C)nn23)ccc1C(=O)NC1CC1 [Example 454, N-cyclopropyl-4-{6-[(3-hydroxy-2-methylphenyl)amino]-8-[(3,3,3-trifluoropropyl)amino]imidazo[1,2-b]pyridazin-3-yl}-2-methylbenzamide]	0.1
Cc1cc(-c2cnc3c(NCCC(F)(F)F)cc(SCCN4CCOCC4)nn23)ccc1C(=O)NC1CC1 [Example 215, N-cyclopropyl-2-methyl-4-(6-{[2-(morpholin-4-yl)ethyl]sulfanyl}-8-[(3,3,3-trifluoropropyl)amino]imidazo[1,2-b]pyridazin-3-yl)benzamide]	1.7
CCNC(=O)c1ccc(-c2cnc3c(NCCOC)cc(Oc4ccc(OC)c(F)c4)nn23)cc1C [Example 610, N-ethyl-4-{6-(3-fluoro-4-methoxyphenoxy)-8-[(2-methoxyethyl)a-mino]imidazo[1,2-b]pyridazin-3-yl}-2-methylbenzamide]	< 1
CC(C)CNc1cc(-c2ccc(C(=O)NC(C)C)cc2)nn2c(-c3ccc(C(=O)NC4CC4)cc3)cnc12 [Example 120, 4-{3-[4-(Cyclopropylcarbamoyl)phenyl]-8-[(2-methylpropyl)amino]imidazo[1,2-b]pyridazin-6-yl}-N-(propan-2-yl)benzamide]	2.5
Cc1cc(-c2cnc3c(NCC4CCSCC4)cc(Oc4ccccc4F)nn23)ccc1C(=O)NC1CC1 [Example 283, N-cyclopropyl-4-{6-(2-fluorophenoxy)-8-[(tetrahydro-2H-thiopyran-4-ylmethyl)amino]imidazo[1,2-b]pyridazin-3-yl}-2-methylbenzamide]	0.3
CNC(=O)c1ccc(-c2cnc3c(NCC4CCOCC4)cc(Oc4ccc(F)c(F)c4)nn23)cc1C [Example 567, 4-{6-(3,4-difluorophenoxy)-8-[(tetrahydro-2H-pyran-4-ylmethyl)amino]imidazo[1,2-b]pyridazin-3-yl}-N,2-dimethylbenzamide]	< 1
CNC(=O)c1ccc(-c2cnc3c(NCC4CCOCC4)cc(Oc4cccc(F)c4)nn23)cc1C [Example 569, 4-{6-(3-fluorophenoxy)-8-[(tetrahydro-2H-pyran-4-ylmethyl)amino]imidazo[1,2-b]pyridazin-3-yl}-N,2-dimethylbenzamide]	< 1
CCNC(=O)c1ccc(-c2cnc3c(NCCN4CCOCC4)cc(Oc4ccc(F)c(F)c4)nn23)cc1C [Example 588, 4-[6-(3,4-difluorophenoxy)-8-{[2-(morpholin-4-yl)ethyl]amino}imidazo[1,2-b]pyridazin-3-yl]-N-ethyl-2-methylbenzamide]	2.2
CCNC(=O)c1ccc(-c2cnc3c(NCCOC)cc(Oc4ccc(OC)cc4F)nn23)cc1C [Example 608, N-ethyl-4-{6-(2-fluoro-4-methoxyphenoxy)-8-[(2-methoxyethyl)a-mino]imidazo[1,2-b]pyridazin-3-yl}-2-methylbenzamide]	3.9
Cc1ccc(Sc2cc(NCC(C)(C)O)c3ncc(-c4ccc(C(=O)NC5CC5)c(C)c4)n3n2)c(F)c1 [Example 360, N-cyclopropyl-4-{6-[(2-fluoro-4-methylphenyl)sulfanyl]-8-[(2-hydroxy-2-methylpropyl)amino]imidazo[1,2-b]pyridazin-3-yl}-2-methylbenzamide]	0.9
CC(C)CNc1cc(-c2cnn(C)c2)nn2c(-c3ccc(C(=O)NC4CC4)cc3)cnc12 [Example 117, N-cyclopropyl-4-{8-[(2-methylpropyl)amino]-6-(1-methyl-1H-pyrazol-4-yl)imidazo[1,2-b]pyridazin-3-yl}benzamide]	3.3
COc1ccc(Nc2cc(NCCC(F)(F)F)c3ncc(-c4ccc(C(=O)NC5CC5)c(C)c4)n3n2)cc1F [Example 424, N-cyclopropyl-4-{6-[(3-fluoro-4-methoxyphenyl)amino]-8-[(3,3,3-trifluoropropyl)amino]imidazo[1,2-b]pyridazin-3-yl}-2-methylbenzamide]	0.2
Cc1cc(-c2cnc3c(NCC(C)(C)O)cc(Oc4cccnc4)nn23)ccc1C(=O)NC1CC1 [Example 173, N-cyclopropyl-4-{8-[(2-hydroxy-2-methylpropyl)amino]-6-(pyridin-3-yloxy)imidazo[1,2-b]pyridazin-3-yl}-2-methylbenzamide]	0.4
Cc1cc(-c2cnc3c(NCC(C)(C)O)cc(Oc4cccc(OCC(C)(C)O)c4)nn23)ccc1C(=O)NC1CC1 [Example 275, N-cyclopropyl-4-{6-[3-(2-hydroxy-2-methylpropoxy)phenoxy]-8-[(2-hydroxy-2-methylpropyl)amino]imidazo[1,2-b]pyridazin-3-yl}-2-methylbenzamide]	5.4
CC(C)CNc1cc(-c2cccc(Cl)c2)nn2c(-c3ccc(C(=O)NC4CC4)cc3)cnc12 [Example 124, 4-{6-(3-Chlorophenyl)-8-[(2-methylpropyl)amino]imidazo[1,2-b]pyridazin-3-yl}-N-cyclopropylbenzamide]	4.7
Cc1cc(-c2cnc3c(NCCCN4CCOCC4)cc(Oc4cccc(F)c4)nn23)ccc1C(=O)NC1CC1 [Example 506, N-cyclopropyl-4-[6-(3-fluoro-phenoxy)-8-{[3-(morpholin-4-yl)propyl]amino}imidazo[1,2-b]pyridazin-3-yl]-2-methyl-benzamide]	0.1
Cc1cc(-c2cnc3c(NCC(C)(C)O)cc(-c4ccnn4C)nn23)ccc1C(=O)NC1CC1 [Example 21, N-cyclopropyl-4-{8-[(2-hydroxy-2-methylpropyl)amino]-6-(1-methyl-1H-pyrazol-5-yl)imidazo[1,2-b]pyridazin-3-yl}-2-methylbenzamide]	3.7
CC=Cc1cc(NCCC(F)(F)F)c2ncc(-c3ccc(C(=O)NC4CC4)c(C)c3)n2n1 (mixture of isomers) [Example 23, N-cyclopropyl-2-methyl-4-{6-[(1E/Z)-prop-1-en-1-yl]-8-[(3,3,3-trifluoropropyl)amino]imidazo[1,2-b]pyridazin-3-yl}benzamide]	2.4
CC(C)CNc1cc(-c2ccc(O)cc2)nn2c(-c3ccc(C(=O)NC4CC4)cc3)cnc12 [Example 141, N-cyclopropyl-4-{6-(4-hydroxyphenyl)-8-[(2-methylpropyl)amino]imidazo[1,2-b]pyridazin-3-yl}benzamide]	2.4
Cc1cc(-c2cnc3c(NCCC(F)(F)F)cc(Oc4cccc(F)c4)nn23)ccc1C(=O)NCC(C)C [Example 557, 4-{6-(3-fluorophenoxy)-8-[(3,3,3-trifluoropropyl)amino]imidazo[1,2-b]pyridazin-3-yl}-N-isobutyl-2-methylbenzamide]	2.2
Cc1cc(-c2cnc3c(NCCCC(F)(F)F)cc(Nc4cccc(F)c4F)nn23)ccc1C(=O)NC1CC1 [Example 450, N-cyclopropyl-4-{6-[(2,3-difluorophenyl)amino]-8-[(4,4,4-trifluorobutyl)amino]imidazo[1,2-b]pyridazin-3-yl}-2-methylbenzamide]	0.3
